Reference: PubChem BioAssay (NCI)
Where “and” joins values, the source holds several entries; their conditions need not be identical. Equal values may be shown once.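 Values below derive from 48-hour exposures of cells grown in 96-well plates, with endpoints linearly interpolated between the two concentrations bracketing the appropriate inhibition level. GI50 = concentration required for 50% inhibition of growth. TGI: concentration producing complete growth inhibition.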

Tests used:
Experiment in all cases: growth of human tumour cells (NCI), 48 h
SR leukemia = tested on: SR leukemia
CAKI-1 renal = tested on: CAKI-1 renal
M14 melanoma = tested on: M14 melanoma
LOX IMVI melanoma = tested on: LOX IMVI melanoma
SK-MEL-28 melanoma = tested on: SK-MEL-28 melanoma
A549 NSCLC = tested on: A549 NSCLC
HOP-62 NSCLC = tested on: HOP-62 NSCLC
BT-549 breast = tested on: BT-549 breast
NCI-H226 lung = tested on: NCI-H226 lung
COLO 205 colon = tested on: COLO 205 colon

Structure (SMILES) | GI50 (SR leukemia) | TGI (SR leukemia) | GI50 (CAKI-1 renal) | TGI (CAKI-1 renal) | GI50 (M14 melanoma) | TGI (M14 melanoma) | GI50 (LOX IMVI melanoma) | TGI (LOX IMVI melanoma) | GI50 (SK-MEL-28 melanoma) | TGI (SK-MEL-28 melanoma) | GI50 (A549 NSCLC) | TGI (A549 NSCLC) | GI50 (HOP-62 NSCLC) | TGI (HOP-62 NSCLC) | GI50 (BT-549 breast) | TGI (BT-549 breast) | GI50 (NCI-H226 lung) | TGI (NCI-H226 lung) | GI50 (COLO 205 colon) | TGI (COLO 205 colon)
CCc1ccc([O-])c(C=NCCCN(C)CCCN=Cc2cc(C)ccc2[O-])c1.[Co+3].[N-]=[N+]=[N-] | 36.4 µg/mL | 50 µg/mL | 50 µg/mL and 66.9 µg/mL | 50 µg/mL and > 150 µg/mL | 50 µg/mL | 50 µg/mL | 41.3 µg/mL | > 150 µg/mL | 50 µg/mL and 91.8 µg/mL | 50 µg/mL and > 150 µg/mL | 50 µg/mL and 106 µg/mL | 50 µg/mL and > 150 µg/mL | 10.5 µg/mL and 12 µg/mL | 50 µg/mL and 34.5 µg/mL | 50 µg/mL | 50 µg/mL | 50 µg/mL and 32.5 µg/mL | 50 µg/mL and 88.6 µg/mL | 50 µg/mL and > 150 µg/mL | 50 µg/mL and > 150 µg/mL
COc1ccc(-c2nc3sccn3c2-c2ccnc(NCCCNS(=O)(=O)c3ccc(F)cc3)n2)cc1 | 3.17 µM | > 100 µM | 2.5 µM | 7.29 µM | 2.54 µM | 10.2 µM | 1.91 µM | 5.82 µM | 2.29 µM | 6.86 µM | 2.94 µM | > 100 µM | 4.15 µM | 23.7 µM | 2.19 µM | 8.27 µM | 1.59 µM | 5.28 µM | 1.89 µM | 8.15 µM
CC(=O)C(C=O)C(C)=O.CC(=O)CC(C)=O.CC(=O)CC(C)=O.[Ru] | 18.2 µM | 92.6 µM | 27.5 µM | 72.4 µM | 49.4 µM | > 100 µM | 13.6 µM | 80.3 µM | 48.8 µM | > 100 µM | 33.5 µM | > 100 µM | 32.4 µM | > 100 µM | 7.27 µM | 69.5 µM | 5.83 µM | 35.2 µM | 29.9 µM | > 100 µM
OCc1ccc(N(Cc2ccc(F)cc2)CC2CCC2)cc1Cl | 11.7 µM | 29 µM | 2.04 µM | 8.51 µM | 15.2 µM | 31.2 µM | 14.7 µM | 29.2 µM | 14.8 µM | 28.3 µM | 8.49 µM | 22.4 µM | 10 µM | 22.7 µM | 17.5 µM | 32.3 µM | 0.178 µM | 0.525 µM | 13.5 µM | 26.6 µM
c1cc2c(c(NC3=NCCN3)c1)CCCC2 |  | > 100 µM |  | > 100 µM |  | > 100 µM |  | > 100 µM |  | > 100 µM |  | > 100 µM |  | > 100 µM |  | > 100 µM |  | > 100 µM |  | > 100 µM
Fc1ccc(-c2c(-c3ccncc3)[nH]c3nccnc23)cc1 | 8.79 µM | > 25 µM | 4.52 µM | > 19.9 µM | > 18.7 µM | > 25 µM | 11.1 µM | > 25 µM | 16.2 µM | > 25 µM | 7.35 µM | > 25 µM | > 15.3 µM | > 25 µM | > 15.2 µM | > 25 µM | 6.76 µM | > 25 µM | 5.86 µM | > 25 µM
N=C1/C(=C2\Nc3ccccc3S2)CC(=O)N1c1ccc(SC(F)F)cc1 | 2.21 µM | > 100 µM | 8.7 µM | > 100 µM | 33.2 µM | > 100 µM | 2.21 µM | > 100 µM | 4.38 µM | > 100 µM | 3.75 µM | > 100 µM | 1.49 µM | 14.7 µM | > 100 µM | > 100 µM | 60.9 µM | > 100 µM | 11.2 µM | > 100 µM
CCN(CCO)CCCOc1ccc2c(Nc3cc(CC(=O)Nc4cccc(F)c4)[nH]n3)ncnc2c1 |  | 28 µM and > 3.87 µM | > 36.5 µM | > 100 µM | 20.9 µM | > 56.2 µM | 10.6 µM | 32.2 µM and > 3.26 µM | 16.4 µM | 31.4 µM | 20.5 µM | > 100 µM | 16.3 µM | > 88.6 µM | 13 µM | 29.7 µM and > 3.6 µM | 23.8 µM | > 100 µM | 0.034 µM and 0.0244 µM | 1.22 µM
Cc1cn2c(/C=C3/C(=O)Nc4ccc(Cl)cc43)c(C)nc2s1 |  | > 100 µM | 0.741 µM |  | < 0.028 µM | > 45.7 µM | 0.0706 µM | 54.5 µM | 17 µM | > 54.7 µM | 1.05 µM | > 49.1 µM | 0.214 µM | 18.3 µM | 5.94 µM | 97.1 µM | 11 µM | > 90.6 µM |  | 
CC[C@@]1(O)C(=O)NCc2c1cc1n(c2=O)Cc2cc3c(NC(C)=O)cccc3nc2-1 | > 100 µM | > 100 µM | > 100 µM | > 100 µM | > 100 µM | > 100 µM | > 100 µM | > 100 µM | > 100 µM | > 100 µM | > 100 µM | > 100 µM | > 100 µM | > 100 µM | > 100 µM | > 100 µM | > 100 µM | > 100 µM | > 100 µM | > 100 µM
O=C1C(Br)=CC2(C=C1Br)CCNc1c(O)c3c4c(c12)=NCCC=4C=N3 |  | 0.117 µM |  | 0.309 µM |  | 0.212 µM |  | 0.254 µM |  | 0.416 µM |  | 3.09 µM |  | 5.34 µM |  | 0.507 µM |  | 2.74 µM |  | 0.0289 µM
O=C1/C(=C/c2ccccc2[N+](=O)[O-])COc2ccc(O)c(O)c21 | 0.476 µM | > 100 µM | 0.607 µM | 1.99 µM | 0.797 µM | 2.89 µM | 0.307 µM | 1.3 µM | 1.33 µM | 2.97 µM | 2.61 µM | 12.4 µM | 3.55 µM | 14.5 µM | 0.882 µM | 4.02 µM | 3.97 µM | 25.2 µM | 0.71 µM | 2.57 µM
N=C1C(c2nc3ccccc3s2)=C(O)CN1c1cc(Cl)cc(Cl)c1 | > 100 µM | > 100 µM | > 100 µM | > 100 µM |  |  | > 100 µM | > 100 µM | > 100 µM | > 100 µM | > 100 µM | > 100 µM | 46.7 µM | > 100 µM | > 100 µM | > 100 µM | > 100 µM | > 100 µM | > 100 µM | > 100 µM
